Experimental data reported in patent publication US20030055106A1, “Therapeutic uses of peroxometallic compounds” (priority 1999, published 2003).

Columns and labels:
[1] = system: vitelline membrane of chick embryos; experiment: Embryonic vascularization test (EVT) ex ovo; assay type: in vivo
Source text: FIG. 2: A and B show an anti-angiogenic response to bpV(phen), orthovanadate (Van) and protamine (Prot) using a vascularization test on the vitelline membrane of chick embryos. Each point represents a minimum of 15 embryos (15 to 28).
The normal development of a chick embryo involves the formation of an external vascular system which is located in the vitelline membrane and which carries nutrients from the vitellus (yolk of the egg) to the developing embryo. When placed onto the vitelline membrane, anti-angiogenic substances can inhibit blood vessel development in the vitelline membrane. To facilitate access to the vitelline membrane, chick embryos were transferred to a sterile culture box (Petri dish) and placed in a humidity- and temperature-controlled incubator. Embryos could then develop in this ex ovo condition for several days.
An aliquot of the tested compound was mixed with a methylcellulose solution and allowed to air-dry into thin discs. Methylcellulose forms an inert matrix from which the tested compound can diffuse slowly. Methylcellulose discs containing the tested compound were placed on the external border of the vascular perimeter of the vitelline membrane where the angiogenic process was still active.
The effects of the discs containing the tested compound on proximal vascular development were, in all cases, compared with those of discs containing control buffer. The discs were placed on the embryos' vitelline membrane on Day 0 or Day 1 of the ex ovo growth process; at this point, only beginnings of the main blood vessels are invading the vitellus. The embryos were then put in culture conditions until vascularization was assessed (approximately 24 h). Control buffer- and compound-containing discs were in all cases added simultaneously on the vitelline membrane of the same embryo. Both discs were arranged in a symmetrical fashion with respect to the cephalo-caudal axis of the embryo in order to minimize inter-individual variations when comparing the tested compounds with controls.
[…] After one day in culture, the level of vascularization in the area covered by the discs was graded by a pair of scientists in the usual blind fashion. To facilitate the location of the discs, black O-rings were placed around them just after their placement on the vitelline membrane. The evaluation scale for the EVTs was based on two different scoring systems.
Blood vessel formation was assessed in a blind fashion. The areas of the vitelline membranes that lay beneath the methylcellulose discs were scored for the degree of vascularization, using two scoring systems (“N/+” or “1-2-3”). The following selection criteria were used:
A score of “N” for “Normal” was attributed when all the following conditions were met:
Blood vessels in the evaluated area grew along their path with no abnormal deviation. Collateral branching density was normal and the growth path of the lateral branches was also normal.
A score of “+” was attributed when at least one of the following conditions was met:
1-2-3 Grading Scale System:
A score of 3 was attributed when the following conditions were met:
A score of 2 was attributed when at least one of the following conditions was met:
A score of 1 was attributed when at least one of the following conditions was met:
A score of 3 meant that blood vessel development was normal whereas a score of 1 indicated the greatest degree of angiostatic activity.

HUVECs = experiment: HUVEC differentiation and organization into tubular-like structures in fibrin matrix; assay type: cell-based, Human; details: 21 days in culture
Method: Alternatively, HUVECs cultured in a fibrin matrix can form 3-dimensional tubular-like structures in the presence of serum (103). This assay was performed in the presence of either bpV(phen), bpv(pic) or vanadate to assess the influence of each one of these compounds on HUVEC differentiation and organization (Table 1). HUVECs were seeded on the bottom of gelatin-coated wells at high density to provide a confluent monolayer at 48 hours.
Then, 50 000 HUVECs/ml were embedded in fibrinogen solution prior to polymerization. The fibrin matrix was covered with culture medium containing the molecule to be tested, while culture medium without any of these molecules served as controls. Cell behavior was observed periodically by phase contrast microscopy.

murine B10R macrophages = experiment: Chemokine mRNA expression (RNase protection); assay type: cell-based
Method: FIG. 9: Effect of bpV(phen) on chemokine mRNA expression in murine B10R macrophages. (A) Cells were incubated for 2 h with or without various concentrations of bpV(phen) (1-50 μM). Total RNA was isolated and analyzed by RNase protection. (B) Kinetic expression of chemokine genes in murine BIOR macrophages. Cells were incubated for increasing period of time (1-4 h) with or without bpV(phen) at 10 μM. Following extraction of total RNA, RNase protection assay was performed. Free RNA probe is shown in the far left lane. The fold increase was calculated from the densitometry of the autoradiogam.
Various concentrations of bpv(phen) were added to B10R macrophages for4 h. mRNA expression was measured by RNase protection assays. RANTES, MIP-1a/β MIP-2, IP-10 and MCP-1 chemokine mRNA levels increased in response to bpv(phen) (FIG. 9A). MCP-1, MIP-2, MIP-1β and RANTES were induced by the addition of bpv(phen) in a dose-dependent manner whereas IP-10 and MIP-1a were expressed at markedly lower concentrations (10 μM).
To determine the kinetics of chemokine expression following pV compound treatment, B10R macrophages were incubated with 10 ?M bpV(phen) for increasing time intervals. Total RNA was extracted from macrophages at various time-points and subjected to RNase protection assay. […] Thus, conditions for the induction of chemokine expression in response to bpV(phen) seems to vary with the different chemokines.

[2] = system: Th1 and Th2 cytokine genes in spleen; experiment: Cytokine gene expression in spleen (multi-probe RNase protection assay); assay type: in vivo, BALB/c mice; details: naive mice; up to 24 hr; in comparison to PBS
Source text: FIG. 8: In vivo bpV(phen)-induced cytokine gene expression in spleen of BALB/c mice. Expression of Th1 (IFN-(, IL-2, IL-12) and Th2 (IL-4 and IL-10) cytokines were monitored in spleen of BALB/c mice in response to bpv(phen) over a 24-hr period. Expression of cytokine genes has been monitored using a multi-probe RNase protection assay as described in more detail below. Results obtained are representative of 3 experiments performed independently.

[3] = system: Human umbilical vein endothelial cells (HUVECs); details: read-out: approximate IC50, endothelial cell proliferation; 96 hours in culture
Method: Each experiment was performed in triplicate. The culture medium was changed daily.

Which “Anti-angio.activity 1 to 3 (1: no angiogenesis; 3: normal angiogenesis)” value ([1]; 0.001 μg, Assay 1) does the source give for `O.O.O.OO.OO.[K+].[OH-].[V].c1cnc2c(c1)ccc1cccnc12` [bpV(phen), potassium bisperoxo(1,10-phenanthroline)oxovanadate] here?
Its value is 2.7.

And the “Anti-angio.activity % (proportion of embryos showing an anti-angiogenic response)” value (shortened to “Anti-angio.activity %”) ([1]; 0.001 μg, Assay 1)?
The value was 12%.

What about the “Anti-angio.activity 1 to 3 (1: no angiogenesis; 3: normal angiogenesis)” value ([1]; 0.001 μg, Assay 2) of the same molecule?
Its value is 2.4.

What about the “Anti-angio.activity %” value ([1]; 0.001 μg, Assay 2) of the same molecule?
Its value is 20%.

And the “Anti-angio.activity 1 to 3 (1: no angiogenesis; 3: normal angiogenesis)” value ([1]; 0.001 μg, Assay 5)?
Its value is 2.6.

What about the “Anti-angio.activity %” value ([1]; 0.001 μg, Assay 5) of the same molecule?
Its value is 16%.

And the “Anti-angio.activity 1 to 3 (1: no angiogenesis; 3: normal angiogenesis)” value ([1]; 0.01 μg, Assay 1)?
Its value is 2.3.

And the “Anti-angio.activity %” value ([1]; 0.01 μg, Assay 1)?
The value was 31%.

And the “Anti-angio.activity 1 to 3 (1: no angiogenesis; 3: normal angiogenesis)” value ([1]; 0.01 μg, Assay 2)?
The value was 2.5.

And the “Anti-angio.activity %” value ([1]; 0.01 μg, Assay 2)?
Its value is 19%.

And the “Anti-angio.activity 1 to 3 (1: no angiogenesis; 3: normal angiogenesis)” value ([1]; 0.01 μg, Assay 5)?
The value was 2.4.

What about the “Anti-angio.activity %” value ([1]; 0.01 μg, Assay 5) of the same molecule?
Its value is 25%.

And the “Anti-angio.activity 1 to 3 (1: no angiogenesis; 3: normal angiogenesis)” value ([1]; 0.1 μg, Assay 1)?
The value was 1.8.

What about the “Anti-angio.activity %” value ([1]; 0.1 μg, Assay 1) of the same molecule?
The value was 61%.

And the “Anti-angio.activity 1 to 3 (1: no angiogenesis; 3: normal angiogenesis)” value ([1]; 0.1 μg, Assay 2)?
The value was 2.2.

And the “Anti-angio.activity %” value ([1]; 0.1 μg, Assay 2)?
The value was 45%.

What about the “Anti-angio.activity 1 to 3 (1: no angiogenesis; 3: normal angiogenesis)” value ([1]; 0.1 μg, Assay 5) of the same molecule?
The value was 2.0.

What about the “Anti-angio.activity %” value ([1]; 0.1 μg, Assay 5) of the same molecule?
The value was 53%.

And the “Anti-angio.activity 1 to 3 (1: no angiogenesis; 3: normal angiogenesis)” value ([1]; 1 μg, Assay 1)?
Its value is 1.6.

And the “Anti-angio.activity %” value ([1]; 1 μg, Assay 1)?
The value was 86%.

And the “Anti-angio.activity 1 to 3 (1: no angiogenesis; 3: normal angiogenesis)” value ([1]; 1 μg, Assay 2)?
Its value is 1.1.

And the “Anti-angio.activity %” value ([1]; 1 μg, Assay 2)?
Its value is 100%.

And the “Anti-angio.activity 1 to 3 (1: no angiogenesis; 3: normal angiogenesis)” value ([1]; 1 μg, Assay 4)?
Its value is 1.0.

What about the “Anti-angio.activity %” value ([1]; 1 μg, Assay 4) of the same molecule?
Its value is 96%.

What about the “Anti-angio.activity 1 to 3 (1: no angiogenesis; 3: normal angiogenesis)” value ([1]; 1 μg, Assay 5) of the same molecule?
The value was 1.2.

What about the “Anti-angio.activity %” value ([1]; 1 μg, Assay 5) of the same molecule?
The value was 94%.

What about the “approximate IC50, neovascularization (regardless of the scoring system)” value ([1]; per methylcellulose disc) of the same molecule?
Its value is ~0.1 µg.

And the “structures observed by phase contrast microscopy” value (HUVECs; 1 μM)?
The value was “cord-like structures (or cords), tube-like structures (or tubes) and stellate structures (or Stell.struct.) were observed”.

And the “structures observed by phase contrast microscopy” value (HUVECs; 2 and 3.5 μM)?
The value was “fragmented cord-like structures were apparent”.

What about the “most effective dose for the induction of chemokine gene expression” value (murine B10R macrophages) of the same molecule?
The value was 10 µM.

What about the “expression of RANTES mRNA” value (murine B10R macrophages; 10 μM bpV(phen)) of the same molecule?
Its value is “increased in a time-dependent manner over 24 h”.

And the “time of maximum levels of MIP-1a, MIP-2, IP-10, and MCP-1 chemokines mRNA” value (murine B10R macrophages; 10 μM bpV(phen))?
The value was 4 h.

And the “time of optimal expression of MIP-1β mRNA” value (murine B10R macrophages; 10 μM bpV(phen))?
Its value is 8 h.

And the “RANTES, MIP-1a/β MIP-2, IP-10 and MCP-1 chemokine mRNA levels” value (murine B10R macrophages; various concentrations (1-50 μM))?
Its value is “increased”.

What about the “cytokine gene expression in spleen (IL-12, IL-10, IL-2 and IFN)” value [2] of the same molecule?
The value was “significantly up-regulated”.

And the IC50 [3]?
Its IC50 is ~2000 nM.
